Data: the supplement of paper PMC11061612

Tests used:
Assay in all cases: combination Emax (second highest fraction inhibited in the dose matrix, 72 h); higher = more inhibition; extreme values may be limits of the assay
[1] = test system: MOLM-13 (Acute Myeloid Leukemia)
Procedure, shortened: (§1)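 Bliss excess equals the observed combination effect minus the expected value EA + EB − EA·EB, where EA and EB are the effects of each agent alone. Combination Emax is the second-highest inhibition within the matrix. Inhibition was scaled from CellTiter-Glo 2.0 luminescence, with 0 set by vehicle wells and 1 by blank wells, after 72 hours of two-drug dosing of cells plated in 1536-well plates.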

[2] = test system: NCI-H3122 (Lung Adenocarcinoma)
Procedure, shortened: as §1

[3] = test system: JHH-4 (Hepatocellular Carcinoma)
Procedure, shortened: as §1

[4] = test system: M059J (Glioblastoma)
Procedure, shortened: as §1

[5] = test system: RD (Rhabdomyosarcoma)
Procedure, shortened: as §1

[6] = test system: NCI-H526 (Small Cell Lung Carcinoma)
Procedure, shortened: as §1

[7] = test system: SK-GT-2 (Gastric Carcinoma)
Procedure, shortened: as §1

[8] = test system: VMRC-RCZ (Kidney Carcinoma)
Procedure, shortened: as §1

[9] = test system: DAN-G (Pancreatic Carcinoma)
Procedure, shortened: as §1

[10] = test system: NCI-H2731 (Mesothelioma)
Procedure, shortened: as §1

[11] = test system: SJSA-1 (Osteosarcoma)
Procedure, shortened: as §1

[12] = test system: HCC1419 (Breast Carcinoma)
Procedure, shortened: as §1

[13] = test system: NCI-H929 (Plasma Cell Myeloma)
Procedure, shortened: as §1

[14] = test system: KMS-12-BM (Plasma Cell Myeloma)
Procedure, shortened: as §1

[15] = test system: KU812 (Chronic Myelogenous Leukemia)
Procedure, shortened: as §1

[16] = test system: CW-2 (Colorectal Carcinoma)
Procedure, shortened: as §1

[17] = test system: G-361 (Melanoma)
Procedure, shortened: as §1

[18] = test system: RPMI-8226 (Plasma Cell Myeloma)
Procedure, shortened: as §1

[19] = test system: MOG-G-CCM (Low Grade Glioma)
Procedure, shortened: as §1

[20] = test system: NCCIT (Other Solid Carcinomas)
Procedure, shortened: as §1

| Structure (SMILES) | combination Emax [1] | combination Emax [2] | combination Emax [3] | combination Emax [4] | combination Emax [5] | combination Emax [6] | combination Emax [7] | combination Emax [8] | combination Emax [9] | combination Emax [10] | combination Emax [11] | combination Emax [12] | combination Emax [13] | combination Emax [14] | combination Emax [15] | combination Emax [16] | combination Emax [17] | combination Emax [18] | combination Emax [19] | combination Emax [20] |
| --- | --- | --- | --- | --- | --- | --- | --- | --- | --- | --- | --- | --- | --- | --- | --- | --- | --- | --- | --- | --- |
| Cc1c2c(nn1C)CSCc1cc(n(C)n1)CSc1cc(c3ccccc3c1)OCCCc1c(C(=O)O)n(C)c3c-2c(Cl)ccc13 [AZD5991] + CCN(CCO)CCCOc1ccc2c(Nc3cc(CC(=O)Nc4cccc(F)c4)[nH]n3)ncnc2c1 [AZD2811] (first compound max 1 µM, 7x7, partner max 1 µM) | 1 | 0.918 | 0.315 | 0.523 | 0.546 | 0.8 | 0.204 | 0.221 | 0.702 | 0.273 | 0.292 | 0.308 | 1 | 1 | 0.851 | 0.158 | 0.964 | 0.965 | 0.41 | 0.674 |
| Cc1c2c(nn1C)CSCc1cc(n(C)n1)CSc1cc(c3ccccc3c1)OCCCc1c(C(=O)O)n(C)c3c-2c(Cl)ccc13 [AZD5991] + CC1(C)CCC(CN2CCN(c3ccc(C(=O)NS(=O)(=O)c4ccc(NCC5CCOCC5)c([N+](=O)[O-])c4)c(Oc4cnc5[nH]ccc5c4)c3)CC2)=C(c2ccc(Cl)cc2)C1 [Venetoclax] (first compound max 1 µM, 7x7, partner max 1 µM) | 1 | 0.275 | 0.265 | 0.347 | 0.553 | 1 | 0.198 | 0.21 | 0.247 | 0.0671 | 0.296 | 0.275 | 1 | 1 | 0.902 | 0.151 | 0.968 | 1 | 0.433 | 0.692 |
| COc1cc2c(cc1OCCCCCOc1cc3c(cc1OC)C(=O)N1C=C(C)C[C@H]1C=N3)N=C[C@@H]1CC(C)=CN1C2=O [SG3199] + O=C(c1cc(Cc2n[nH]c(=O)c3ccccc23)ccc1F)N1CCN(C(=O)C2CC2)CC1 [Olaparib] (first compound max 0.001 µM, 7x7, partner max 10 µM) | 0.554 | 0.172 | 0.149 | 0.214 | 0.0922 | 0.503 | 0.12 | 0.0887 | 0.137 | 0.0512 | 0.159 | 0.0746 | 0.192 | 0.136 | 0.192 | 0.0839 | 0.0716 | 0.165 | 0.0595 | 0.0982 |
| C=CCn1c(=O)c2cnc(Nc3ccc(N4CCN(C)CC4)cc3)nc2n1-c1cccc(C(C)(C)O)n1 [AZD1775] + O=C(c1cc(Cc2n[nH]c(=O)c3ccccc23)ccc1F)N1CCN(C(=O)C2CC2)CC1 [Olaparib] (first compound max 1 µM, partner max 10 µM) | 0.991 | 0.736 | 0.307 | 0.618 | 0.461 | 0.758 | 0.82 | 0.339 | 0.646 | 0.349 | 0.253 | 0.118 | 0.473 | 0.905 | 0.816 | 0.392 | 0.564 | 0.502 | 0.456 | 0.759 |
| COc1cccc(OCCCN)c1-c1cc(Nc2cnc(C#N)cn2)n[nH]1 [Prexasertib] + O=C(c1cc(Cc2n[nH]c(=O)c3ccccc23)ccc1F)N1CCN(C(=O)C2CC2)CC1 [Olaparib] (first compound max 1 µM, 7x7, partner max 10 µM) | 1 | 0.747 | 0.532 | 0.779 | 0.58 | 0.912 | 0.834 | 0.408 | 0.801 | 0.387 | 0.639 | 0.266 | 0.727 | 1 | 0.796 | 0.301 | 0.668 | 0.999 | 0.673 | 0.621 |
| CN(CCO)CC[C@H](CSc1ccccc1)Nc1ccc(S(=O)(=O)NC(=O)c2ccc(N3CCC([C@@H](O)c4ccccc4-c4ccc(Cl)cc4)CC3)cc2)cc1S(=O)(=O)C(F)(F)F [AZD4320] + CCN(CCO)CCCOc1ccc2c(Nc3cc(CC(=O)Nc4cccc(F)c4)[nH]n3)ncnc2c1 [AZD2811] (first compound max 1 µM, 7x7, partner max 1 µM) | 1 | 0.269 | 0.17 | 0.69 | 0.856 | 0.961 | 0.554 | 0.149 | 0.355 | 0.492 | 0.335 | 0.0755 | 0.227 | 1 | 0.885 | 0.12 | 0.41 | 0.986 | 0.773 | 0.181 |
| CN(CCO)CC[C@H](CSc1ccccc1)Nc1ccc(S(=O)(=O)NC(=O)c2ccc(N3CCC([C@@H](O)c4ccccc4-c4ccc(Cl)cc4)CC3)cc2)cc1S(=O)(=O)C(F)(F)F [AZD4320] + Cn1cnc2c(F)c(Nc3ccc(Br)cc3Cl)c(C(=O)NOCCO)cc21 [Selumetinib] (first compound max 1 µM, 7x7, partner max 3 µM) | 1 | 0.538 | 0.326 | 0.3 | 0.904 | 0.984 | 0.241 | 0.238 | 0.413 | 0.22 | 0.429 | 0.336 | 0.631 | 1 | 0.966 | 0.216 | 0.849 | 0.965 | 0.576 | 0.224 |
| COc1cc2ncnc(Nc3ccc(F)c(Cl)c3)c2cc1OCCCN1CCOCC1 [Gefitinib] + CC(C)n1c(=O)n(C)c2cnc3cc(F)c(-c4ccc(OCCCN5CCCCC5)nc4)cc3c21 [AZD1390] (first compound max 10 µM, 7x7, partner max 0.3 µM) | 0.776 | 0.0961 | 0.234 | 0.178 | 0.0787 | 0.12 | 0.768 | 0.11 | 0.0121 | 0.0304 | 0.0992 | 0.425 | 0.187 | 0.308 | 0.425 | 0.41 | 0.812 | 0.0829 | 0.137 | 0.418 |
| COc1cccc(OCCCN)c1-c1cc(Nc2cnc(C#N)cn2)n[nH]1 [Prexasertib] + Cc1cc2ncnn2cc1Nc1ncc2c(n1)n(C1CCOCC1)c(=O)n2C [AZD7648] (first compound max 1 µM, 7x7, partner max 10 µM) | 1 | 0.664 | 0.62 | 0.693 | 0.571 | 0.92 | 0.833 | 0.362 | 0.816 | 0.385 | 0.656 | 0.288 | 0.847 | 1 | 0.789 | 0.474 | 0.696 | 0.995 | 0.702 | 0.801 |
| COc1cccc(OCCCN)c1-c1cc(Nc2cnc(C#N)cn2)n[nH]1 [Prexasertib] + CN(C)CCCOc1ccc(-c2ccc3ncc4c(c3c2)n(C2CCOCC2)c(=O)n4C)cn1 [AZD0156] (first compound max 1 µM, 7x7, partner max 1 µM) | 1 | 0.697 | 0.529 | 0.658 | 0.536 | 0.895 | 0.823 | 0.342 | 0.824 | 0.406 | 0.711 | 0.258 | 0.825 | 1 | 0.782 | 0.401 | 0.702 | 1 | 0.699 | 0.833 |
| COc1nnc2ccc(N3CCC(c4ccc(OCCN5CCN(C)C(=O)[C@H]5C)cc4)CC3)nn12 [AZD5153] + C=CCn1c(=O)c2cnc(Nc3ccc(N4CCN(C)CC4)cc3)nc2n1-c1cccc(C(C)(C)O)n1 [AZD1775] (first compound max 1 µM, partner max 1 µM) | 1 | 0.707 | 0.56 | 0.668 | 0.774 | 0.947 | 0.755 | 0.489 | 0.681 | 0.535 | 0.589 | 0.346 | 0.908 | 1 | 0.931 | 0.605 | 0.734 | 0.845 | 0.615 | 0.939 |
| CN(CCO)CC[C@H](CSc1ccccc1)Nc1ccc(S(=O)(=O)NC(=O)c2ccc(N3CCC([C@@H](O)c4ccccc4-c4ccc(Cl)cc4)CC3)cc2)cc1S(=O)(=O)C(F)(F)F [AZD4320] + Cc1cc2ncnn2cc1Nc1ncc2c(n1)n(C1CCOCC1)c(=O)n2C [AZD7648] (first compound max 1 µM, 7x7, partner max 10 µM) | 1 | 0.305 | 0.233 | 0.386 | 0.61 | 0.908 | 0.245 | 0.0798 | 0.474 | 0.117 | 0.283 | 0.278 | 0.737 | 1 | 0.872 | 0.154 | 0.205 | 0.965 | 0.558 | 0.243 |
